The text below walks through data of patent US10271552B2, “Heterocyclic compounds as pesticides” (Bayer CropScience Aktiengesellschaft, priority 2015, dated 2019).

Molecules are shown by their SMILES.

Common to all, as to format: in vivo
In one assay the test system is Tetranychus urticae. Description: Tetranychus urticae spray test OP-resistant. The conditions noted are these: foliar, 144 h, French bean leaf disks, all instars, after 6 days. The protocol:
Tetranychus urticae—Spray Test OP-Resistant
(§1) Solvent: 78.0 parts by weight acetone • 1.5 parts by weight dimethylformamide
(§2) Emulsifier: alkylarylpolyglycol ether
(§3) To produce a suitable preparation of active compound, 1 part by weight of active compound is mixed with the stated amount of solvents and is diluted with water, containing an emulsifier concentration of 1000 ppm, to the desired concentration. Further test concentrations are prepared by dilution with emulsifier containing water.
French bean (Phaseolus vulgaris) leaf disks infected with all instars of the two spotted spidermite (Tetranychus urticae), are sprayed with a preparation of the active ingredient of the desired concentration.
After 6 days mortality in % is determined. 100% means all spider mites have been killed and 0% means none of the spider mites have been killed.

The subject of the next assay is Boophilus microplus. Briefly: Boophilus microplus injection test. The conditions noted are these: 20 μg/animal injected; adult engorged female ticks; after 7 days. Put shortly:
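Engorged adult female ticks, five per dose, received 1 μl of compound in DMSO injected into the abdomen and were kept in a climate chamber. Fertile egg deposition was checked after 7 days, with eggs of unclear fertility held until hatching at about 42 days. Efficacy 100% = all eggs infertile, 0% = all fertile.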

Another assay concerns Myzus persicae. Description: Myzus persicae spray test. To be noted: foliar, Chinese cabbage leaf disks, all instars, after 5-6 days. The protocol:
Myzus persicae—Spray Test
as §1, §2, §3
Chinese cabbage (Brassica pekinensis) leaf disks infected with all instars of the green peach aphid (Myzus persicae), are sprayed with a preparation of the active ingredient of the desired concentration.
After 5-6 days mortality in % is determined. 100% means all aphids have been killed and 0% means none of the aphids have been killed.

Assay [1] deals with Nilaparvata lugens. Briefly: Nilaparvata lugens spray test (solvent 52.5 acetone / 7 dimethylformamide). The conditions noted are these: 96 h, rice plants, larvae, after 4 days. The protocol:
(§4) Nilaparvata lugens—Spray Test
(§5) Solvent: 52.5 parts by weight of acetone • 7 parts by weight of dimethylformamide
(§6) Emulsifier: alkylaryl polyglycolether
To produce a suitable preparation of active compound, 1 part by weight of active compound is mixed with the stated amount of solvents and is diluted with water, containing an emulsifier concentration of 1000 ppm, to the desired concentration. Further test concentrations are prepared by dilution with emulsifier containing water. Ammonium salt and/or penetration enhancer in a dosage of 1000 ppm are added to the desired concentration if necessary.
Rice plants (Oryza sativa) are treated by being sprayed with the desired concentration of the active compound and are infested with larvae of the brown planthopper (Nilaparvata lugens).
(§7) After 4 days mortality in % is determined. 100% means all planthoppers have been killed and 0% means none of the planthoppers have been killed.

Assay [2] concerns Nezara viridula. Description: Nezara viridula spray test (solvent 52.5 acetone / 7 dimethylformamide). The conditions noted are these: 96 h, barley plants, larvae, after 4 days. As to the method: (§8) Nezara viridula—Spray Test
as §5, §6
To produce a suitable preparation of active compound, 1 part by weight of active compound is mixed with the stated amount of solvent, and the concentrate is diluted with water, containing an emulsifier concentration of 1000 ppm, to the desired concentration. Ammonium salt and/or penetration enhancer in a dosage of 1000 ppm are added to the desired concentration if necessary.
(§9) Barley plants (Hordeum vulgare) infested with larvae of the southern green stink bug (Nezara viridula) are sprayed with a test solution containing the desired concentration of the active ingredient.
(§10) After 4 days mortality in % is determined. 100% means all the stink bugs have been killed; 0% means none of the stink bugs have been killed.

The test system of assay [3] is Nilaparvata lugens. Description: Nilaparvata lugens spray test (solvent 78.0 acetone / 1.5 dimethylformamide). To be noted: 96 h, rice plants, after 4 days. The protocol:
as §4
(§11) Solvent: 78.0 parts by weight of acetone • • 1.5 parts by weight of dimethylformamide
as §2, §3
Rice plants (Oryza sativa) are sprayed with a preparation of the active ingredient of the desired concentration and the plants are infested with the brown planthopper (Nilaparvata lugens).
as §7

The subject of assay [4] is Ctenocephalides felis. Briefly: whole plant or invertebrate. The conditions noted are these: po, 48 h. As to the method:
Ctenocephalides felis—Oral Test
(§12) Solvent: dimethyl sulfoxide
To produce a suitable preparation of active compound, 10 mg of active compound are dissolved in 0.5 ml solvent, and the concentrate is diluted with cattle blood to the desired concentration.
Approximately 20 adult unfed cat fleas (Ctenocephalides felis) are placed in flea chambers. The blood chamber, sealed with parafilm on the bottom, are filled with cattle blood supplied with compound solution and placed on the gauze covered top of the flea chamber, so that the fleas are able to suck the blood. The blood chamber is heated to 37° C. whereas the flea chamber is kept at room temperature.
After 2 days mortality in % is determined. 100% means all the fleas have been killed; 0% means none of the fleas have been killed.

Assay [5] relates to Nezara viridula. Briefly: Nezara viridula spray test (solvent 78.0 acetone / 1.5 dimethylformamide). The conditions noted are these: 96 h, barley plants, larvae, after 4 days. The protocol:
as §8, §11, §2
To produce a suitable preparation of active compound, 1 part by weight of active compound is mixed with the stated amount of solvent, and the concentrate is diluted with water, containing an emulsifier concentration of 1000 ppm, to the desired concentration. Further test concentrations are prepared by dilution with emulsifier containing water.
as §9, §10

A further assay concerns Meloidogyne incognita. Briefly: Meloidogyne incognita test. To be noted: 20 ppm; eggs and larvae, salad seeds in sand; after 14 days. The method in brief: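 Compound taken up in acetone and diluted with water, then applied to sand with M. incognita eggs and larvae plus salad seeds. Gall formation on roots scored after 14 days: 100% means no galls, 0% equals untreated control.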

For another assay, the system named is Phaedon cochleariae. Briefly: Phaedon cochleariae spray test. The conditions noted are these: foliar, 168 h, Chinese cabbage leaf disks, larvae, after 7 days. As to the method: Phaedon cochleariae—Spray Test
as §11, §2, §3
Chinese cabbage (Brassica pekinensis) leaf disks are sprayed with a preparation of the active ingredient of the desired concentration. Once dry, the leaf disks are infested with mustard beetle larvae (Phaedon cochleariae).
After 7 days mortality in % is determined. 100% means all beetle larvae have been killed and 0% means none of the beetle larvae have been killed.

In a further assay the test system is Diabrotica balteata. Briefly: Diabrotica balteata spray test. The conditions noted are these: 160 μg/well; germinated wheat seeds, larvae; after 7 days. Put shortly:
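Germinated wheat seeds on agar (5 per well) sprayed with compound in acetone/DMF diluted in water with 1000 ppm alkylarylpolyglycol ether, then infested with 10–20 D. balteata larvae. Efficacy (%) scored after 7 days as seedling growth, 100% matching untreated uninfested control and 0% meaning no seedlings grew.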

The test system of a further assay is Lucilia cuprina. Briefly: whole plant or invertebrate. To be noted: 48 h. As to the method:
as §12
10 mg active compound are dissolved in 0.5 ml Dimethylsulfoxid. Serial dilutions are made to obtain the desired rates.
Approximately 20 1st instar larvae of the Australian sheep blowfly (Lucilia cuprina) are transferred into a test tube containing minced horse meat and compound solution of the desired concentration.
After 2 days mortality in % is determined. 100% means all the larvae have been killed; 0% means none of the larvae have been killed.

The subject of a further assay is Musca domestica. Briefly: Musca domestica test. The conditions noted are these: Musca domestica, 48 h. The protocol:
as §12
To produce a suitable preparation of active compound, 10 mg of active compound are dissolved in 0.5 ml solvent, and the concentrate is diluted with water to the desired concentration.
10 adult house flies (Musca domestica) are transferred into a container, containing a sponge soaked with a mixture of sugar solution and compound solution of the desired concentration.
After 2 days mortality in % is determined. 100% means all the flies have been killed; 0% means none of the flies have been killed.

For assay [6], the system named is Ctenocephalides felis. Description: Ctenocephalides felis in-vitro contact test, adult cat flea. The conditions noted are these: 5 μg/cm^2 (=500 g/ha), after 48 hours. The protocol:
Ctenocephalides felis—In-Vitro Contact Tests Adult Cat Flea
9 mg compound is solved in 1 ml acetone and diluted with acetone to the desired concentration. 250 μl of the test solution is filled in 25 ml glass test tubes and homogeneously distributed on the inner walls by rotation and tilting on a shaking device (2 h at 30 rpm). With a compound concentration of 900 ppm, an inner surface of 44.7 cm^2 and a homogeneous distribution, a dose of 5 μg/cm^2 is achieved.
After the solvent has evaporated, each test tube is filled with 5-10 adult cat fleas (Ctenocephalides felis), closed with a perforated lid and incubated in a lying position at room temperature and relative humidity. After 48 hours efficacy is determined. The fleas are patted on the ground of the tubes and are incubated on a heating plate at 45-50° C. for at most 5 minutes. Immotile or uncoordinated moving fleas, which are not able to escape the heat by climbing upwards, are marked as dead or moribund.
An efficacy of 100% means all fleas are dead or moribund; 0% means no fleas are dead or moribund.

A further assay concerns Spodoptera frugiperda. Briefly: Spodoptera frugiperda spray test. To be noted: 168 h, maize leaf sections, larvae, after 7 days. The protocol: Spodontera frugiperda—Spray Test
as §1, §2, §3
Maize (Zea mays) leaf sections are sprayed with a preparation of the active ingredient of the desired concentration. Once dry, the leaf sections are infested with fall armyworm larvae (Spodoptera frugiperda).
After 7 days mortality in % is determined. 100% means all caterpillars have been killed and 0% means none of the caterpillars have been killed.

The term mortality denotes the percentage killed. As to `O=C(Nc1nc(-c2ccccc2C(F)(F)F)ns1)c1cccnc1C(F)(F)F` [Compound I-1-20, 2-(trifluoromethyl)-N-{3-[2-(trifluoromethyl)phenyl]-1,2,4-thiadiazol-5-yl}nicotinamide], the mortality at 500 g/ha was ≥ 70% in the assay with Tetranychus urticae; ≥ 70% in the assay on Myzus persicae; ≥ 80% in the assay on Nilaparvata lugens [1]; ≥ 90% with Nezara viridula [2]; ≥ 70% in the assay with Nilaparvata lugens [3]; ≥ 90% in the assay on Nezara viridula [5]. Besides, the mortality at 500 g/ha with Phaedon cochleariae was ≥ 80%. Besides, in the assay on Boophilus microplus, the “efficacy (infertile eggs)” value amounted to 100%. Moreover, the mortality at 100 ppm with Ctenocephalides felis [4] and in the assay with Lucilia cuprina was 100% in each case. For the same compound, the “nematicidal activity (gall formation)” value in the assay on Meloidogyne incognita was 100%. For the same compound, the “efficacy (seedling growth)” value in the assay with Diabrotica balteata was 100%.
As for `O=C(c1cccnc1C(F)(F)F)N(C(=O)c1cccnc1C(F)(F)F)c1nc(-c2c(F)cccc2F)ns1` [Compound I-1-31, N-[3-(2,6-Difluorophenyl)-1,2,4-thiadiazol-5-yl]-2-(trifluoromethyl)-N-{[2-(trifluoromethyl)pyridin-3-yl]carbonyl}nicotinamide], the mortality at 500 g/ha in the assay on Tetranychus urticae is ≥ 70%; in the assay with Nezara viridula [2], ≥ 90%; in the assay on Phaedon cochleariae it was ≥ 80%. The “efficacy (infertile eggs)” value in the assay with Boophilus microplus was determined as 100%. Besides, the mortality at 100 ppm in the assay with Musca domestica was found to be 80%; with Ctenocephalides felis [4] it was 100%; with Lucilia cuprina, 100%. Moreover, in the assay on Ctenocephalides felis [6], the “efficacy (fleas dead or moribund)” value was 100%.
Turning to `O=C(Nc1nc(-c2ccccc2OC(F)(F)F)ns1)c1cccnc1C(F)(F)F` [Compound I-1-55, N-{3-[2-(Trifluoromethoxy)phenyl]-1,2,4-thiadiazol-5-yl}-2-(trifluoromethyl)nicotinamide], the mortality at 500 g/ha was ≥ 70% in the assay on Tetranychus urticae; ≥ 80% in the assay on Spodoptera frugiperda; ≥ 70% in the assay on Myzus persicae; ≥ 90% with Nezara viridula [2]; ≥ 90% in the assay on Nezara viridula [5]; ≥ 80% in the assay with Phaedon cochleariae. Besides, in the assay on Boophilus microplus, the “efficacy (infertile eggs)” value is 100%. Further, the mortality at 100 ppm in the assay on Ctenocephalides felis [4] and in the assay on Lucilia cuprina was 100% each time. Moreover, the “efficacy (seedling growth)” value in the assay with Diabrotica balteata was 100%.
For the compound `O=C(Nc1nc(-c2cccc(C(F)(F)F)c2Cl)ns1)c1cccnc1C(F)(F)F` [Compound I-1-62, N-{3-[2-Chloro-3-(trifluoromethyl)phenyl]-1,2,4-thiadiazol-5-yl}-2-(trifluoromethyl)nicotinamide], the mortality at 500 g/ha in the assay with Tetranychus urticae was ≥ 70%; with Spodoptera frugiperda, ≥ 80%; in the assay with Myzus persicae, ≥ 70%; with Nilaparvata lugens [1], ≥ 80%; in the assay on Nezara viridula [2], ≥ 90%; in the assay with Nezara viridula [5] it was ≥ 90%. Also, the mortality at 500 g/ha in the assay on Phaedon cochleariae is ≥ 80%.
